Reference: the kinase profiling compilation of Christmann-Franck et al. (2016)

Tests used:
Assay in all cases: radiometric filter-binding kinase assay
CHEK2 (human) = CHEK2 (human) (UniProt O96017)
MAPK1 (human) = MAPK1 (human) (UniProt P28482)
MAPK3 (human) = MAPK3 (human) (UniProt P27361)
PIM2 (human) = PIM2 (human) (UniProt Q9P1W9)
MINK1 (human) = MINK1 (human) (UniProt Q8N4C8)
SRC (human) = SRC (human) (UniProt P12931)
GCK (human) = GCK (human) (UniProt Q12851)
MAPK10 (human) = MAPK10 (human) (UniProt P53779)
AURKB (human) = AURKB (human) (UniProt Q96GD4)
MAPKAPK2 (human) = MAPKAPK2 (human) (UniProt P49137)
MKNK1 (human) = MKNK1 (human) (UniProt Q9BUB5)
MAP2K1 (human) = MAP2K1 (human) (UniProt Q02750)
PHKG1 (human) = PHKG1 (human) (UniProt Q16816)
MARK2 (human) = MARK2 (human) (UniProt Q7KZI7)
CHEK1 (human) = CHEK1 (human) (UniProt O14757)
NEK2 (human) = NEK2 (human) (UniProt P51955)
[1] = test system: AKT2 (human), P31751 [S474D]
MAPK15 (human) = MAPK15 (human) (UniProt Q8TD08)
IGF1R (human) = IGF1R (human) (UniProt P08069)
NTRK1 (human) = NTRK1 (human) (UniProt P04629)
PRKACA (human) = PRKACA (human) (UniProt P17612)
[2] = biological target: STK11 CAB39 STRADA (human) (UniProt Q9Y376+Q7RTN6+Q15831)
EPHB4 (human) = EPHB4 (human) (UniProt P54760)
MAP3K5 (human) = MAP3K5 (human) (UniProt Q99683)
PKN2 (human) = PKN2 (human) (UniProt Q16513)
MAPK9 (human) = MAPK9 (human) (UniProt P45984)
PRKCA (human) = PRKCA (human) (UniProt P17252)
RPS6KA1 KD1 KD2 (human) = RPS6KA1 KD1 KD2 (human) (UniProt Q15418)
PRKAA1 or PRKAA2 (rat) = conditions: accession and sequence are those of the human protein
STK3 (human) = STK3 (human) (UniProt Q13188)
MKNK2 (human) = MKNK2 (human) (UniProt Q9HBH9)
MAP3K1 (human) = MAP3K1 (human) (UniProt Q13233)
YES1 (human) = YES1 (human) (UniProt P07947)
IKBKB (human) = IKBKB (human) (UniProt O14920)
CAMKK2 (human) = CAMKK2 (human) (UniProt Q96RR4)

Chain of MAP3K1 (human) (Q13233 whole entry, looked up): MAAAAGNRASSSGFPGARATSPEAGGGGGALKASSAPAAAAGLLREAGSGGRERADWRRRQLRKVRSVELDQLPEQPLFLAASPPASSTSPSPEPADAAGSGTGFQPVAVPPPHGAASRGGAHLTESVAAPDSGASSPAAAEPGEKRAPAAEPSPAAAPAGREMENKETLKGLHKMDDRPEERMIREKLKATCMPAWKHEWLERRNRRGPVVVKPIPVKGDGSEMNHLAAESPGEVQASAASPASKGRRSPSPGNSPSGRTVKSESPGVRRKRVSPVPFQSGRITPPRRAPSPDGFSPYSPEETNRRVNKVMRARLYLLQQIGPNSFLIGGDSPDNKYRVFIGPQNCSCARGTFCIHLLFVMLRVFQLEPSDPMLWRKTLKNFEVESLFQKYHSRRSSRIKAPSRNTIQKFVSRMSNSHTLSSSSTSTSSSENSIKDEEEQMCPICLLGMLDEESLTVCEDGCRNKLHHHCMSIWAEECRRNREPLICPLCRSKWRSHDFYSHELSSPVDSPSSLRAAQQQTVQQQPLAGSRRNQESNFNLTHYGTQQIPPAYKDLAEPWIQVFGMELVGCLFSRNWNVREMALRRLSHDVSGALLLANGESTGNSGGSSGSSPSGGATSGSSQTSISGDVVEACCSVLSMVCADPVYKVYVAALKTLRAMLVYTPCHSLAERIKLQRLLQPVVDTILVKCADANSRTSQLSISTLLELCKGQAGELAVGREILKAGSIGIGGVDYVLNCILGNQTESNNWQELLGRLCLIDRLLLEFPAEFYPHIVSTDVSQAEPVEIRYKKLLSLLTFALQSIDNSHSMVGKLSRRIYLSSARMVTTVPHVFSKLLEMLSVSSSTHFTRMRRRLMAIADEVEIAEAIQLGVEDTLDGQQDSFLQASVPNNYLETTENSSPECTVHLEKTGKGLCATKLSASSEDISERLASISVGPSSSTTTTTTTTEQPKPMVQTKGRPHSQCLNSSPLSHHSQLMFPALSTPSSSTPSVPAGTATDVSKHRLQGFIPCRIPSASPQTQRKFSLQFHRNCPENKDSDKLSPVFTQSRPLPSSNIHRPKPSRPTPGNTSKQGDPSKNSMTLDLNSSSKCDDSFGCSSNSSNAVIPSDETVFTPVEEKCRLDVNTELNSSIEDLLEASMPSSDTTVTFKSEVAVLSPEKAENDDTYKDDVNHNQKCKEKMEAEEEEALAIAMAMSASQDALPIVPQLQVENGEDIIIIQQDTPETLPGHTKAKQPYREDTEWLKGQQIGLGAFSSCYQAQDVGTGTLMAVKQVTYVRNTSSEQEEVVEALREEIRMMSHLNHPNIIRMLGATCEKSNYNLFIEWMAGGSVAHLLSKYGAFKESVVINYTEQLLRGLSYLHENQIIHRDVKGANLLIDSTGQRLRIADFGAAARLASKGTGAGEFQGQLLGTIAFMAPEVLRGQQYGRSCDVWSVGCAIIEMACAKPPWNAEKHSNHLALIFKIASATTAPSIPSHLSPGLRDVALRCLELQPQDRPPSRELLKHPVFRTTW
Chain of YES1 (human) (P07947 whole entry, looked up): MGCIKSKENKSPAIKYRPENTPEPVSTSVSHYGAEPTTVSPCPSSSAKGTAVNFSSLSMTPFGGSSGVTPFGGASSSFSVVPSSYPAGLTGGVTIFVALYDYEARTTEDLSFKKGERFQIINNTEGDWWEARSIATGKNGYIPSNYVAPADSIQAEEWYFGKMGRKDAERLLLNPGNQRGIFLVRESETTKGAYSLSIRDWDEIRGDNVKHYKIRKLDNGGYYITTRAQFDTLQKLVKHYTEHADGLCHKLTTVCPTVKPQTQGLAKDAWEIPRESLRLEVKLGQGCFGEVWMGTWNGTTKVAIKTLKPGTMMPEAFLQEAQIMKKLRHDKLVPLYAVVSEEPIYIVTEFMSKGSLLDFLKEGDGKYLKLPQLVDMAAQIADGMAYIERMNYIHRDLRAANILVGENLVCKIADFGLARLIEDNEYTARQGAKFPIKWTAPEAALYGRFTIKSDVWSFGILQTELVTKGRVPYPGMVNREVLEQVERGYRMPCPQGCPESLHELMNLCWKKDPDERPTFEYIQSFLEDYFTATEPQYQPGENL
Chain of MAPK3 (human) (P27361 whole entry, looked up): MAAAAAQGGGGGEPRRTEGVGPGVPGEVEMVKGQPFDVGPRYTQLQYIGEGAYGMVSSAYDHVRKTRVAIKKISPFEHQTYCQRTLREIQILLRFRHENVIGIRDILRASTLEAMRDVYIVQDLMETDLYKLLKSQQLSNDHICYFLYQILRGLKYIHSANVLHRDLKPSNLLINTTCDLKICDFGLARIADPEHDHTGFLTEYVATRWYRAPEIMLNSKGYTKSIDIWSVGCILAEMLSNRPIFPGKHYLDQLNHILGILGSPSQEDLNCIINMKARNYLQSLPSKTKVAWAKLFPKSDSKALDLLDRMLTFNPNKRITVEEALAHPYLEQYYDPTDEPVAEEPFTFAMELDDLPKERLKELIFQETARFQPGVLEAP
Chain of STK11 CAB39 STRADA (human) (Q15831 whole entry, looked up): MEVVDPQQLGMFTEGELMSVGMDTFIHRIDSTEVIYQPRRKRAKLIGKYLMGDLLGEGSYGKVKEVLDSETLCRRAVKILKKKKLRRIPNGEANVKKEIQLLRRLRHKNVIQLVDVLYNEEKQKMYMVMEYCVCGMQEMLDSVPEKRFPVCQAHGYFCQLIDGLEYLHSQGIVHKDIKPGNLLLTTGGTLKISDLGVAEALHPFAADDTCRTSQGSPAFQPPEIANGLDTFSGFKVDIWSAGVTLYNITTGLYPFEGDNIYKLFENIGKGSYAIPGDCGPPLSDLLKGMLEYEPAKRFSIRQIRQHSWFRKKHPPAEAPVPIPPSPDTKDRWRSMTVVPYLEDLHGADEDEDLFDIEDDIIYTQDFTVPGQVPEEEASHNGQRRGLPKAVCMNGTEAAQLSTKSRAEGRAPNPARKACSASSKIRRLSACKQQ
Chain of STK11 CAB39 STRADA (human) (Q7RTN6 whole entry, looked up): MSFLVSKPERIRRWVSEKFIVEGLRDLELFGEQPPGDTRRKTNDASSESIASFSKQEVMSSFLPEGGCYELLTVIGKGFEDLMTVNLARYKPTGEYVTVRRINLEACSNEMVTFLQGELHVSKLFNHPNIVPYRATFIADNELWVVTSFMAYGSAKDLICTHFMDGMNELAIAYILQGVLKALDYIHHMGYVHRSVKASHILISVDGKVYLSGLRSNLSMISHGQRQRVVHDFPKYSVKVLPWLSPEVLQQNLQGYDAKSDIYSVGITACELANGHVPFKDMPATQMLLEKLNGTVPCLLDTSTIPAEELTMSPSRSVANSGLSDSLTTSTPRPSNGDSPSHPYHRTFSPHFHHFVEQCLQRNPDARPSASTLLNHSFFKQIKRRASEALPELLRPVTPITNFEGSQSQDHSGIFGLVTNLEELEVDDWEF
Chain of STK11 CAB39 STRADA (human) (Q9Y376 whole entry, looked up): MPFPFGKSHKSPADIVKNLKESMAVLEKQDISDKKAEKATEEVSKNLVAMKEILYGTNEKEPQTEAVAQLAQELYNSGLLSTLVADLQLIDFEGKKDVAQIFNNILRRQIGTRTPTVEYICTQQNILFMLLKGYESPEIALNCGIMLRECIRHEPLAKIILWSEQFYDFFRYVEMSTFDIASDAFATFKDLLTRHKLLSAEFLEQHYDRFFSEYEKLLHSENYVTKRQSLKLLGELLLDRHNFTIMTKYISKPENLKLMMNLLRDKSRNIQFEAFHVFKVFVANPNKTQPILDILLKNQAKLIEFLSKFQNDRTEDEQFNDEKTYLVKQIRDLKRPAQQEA
Chain of MINK1 (human) (Q8N4C8 whole entry, looked up): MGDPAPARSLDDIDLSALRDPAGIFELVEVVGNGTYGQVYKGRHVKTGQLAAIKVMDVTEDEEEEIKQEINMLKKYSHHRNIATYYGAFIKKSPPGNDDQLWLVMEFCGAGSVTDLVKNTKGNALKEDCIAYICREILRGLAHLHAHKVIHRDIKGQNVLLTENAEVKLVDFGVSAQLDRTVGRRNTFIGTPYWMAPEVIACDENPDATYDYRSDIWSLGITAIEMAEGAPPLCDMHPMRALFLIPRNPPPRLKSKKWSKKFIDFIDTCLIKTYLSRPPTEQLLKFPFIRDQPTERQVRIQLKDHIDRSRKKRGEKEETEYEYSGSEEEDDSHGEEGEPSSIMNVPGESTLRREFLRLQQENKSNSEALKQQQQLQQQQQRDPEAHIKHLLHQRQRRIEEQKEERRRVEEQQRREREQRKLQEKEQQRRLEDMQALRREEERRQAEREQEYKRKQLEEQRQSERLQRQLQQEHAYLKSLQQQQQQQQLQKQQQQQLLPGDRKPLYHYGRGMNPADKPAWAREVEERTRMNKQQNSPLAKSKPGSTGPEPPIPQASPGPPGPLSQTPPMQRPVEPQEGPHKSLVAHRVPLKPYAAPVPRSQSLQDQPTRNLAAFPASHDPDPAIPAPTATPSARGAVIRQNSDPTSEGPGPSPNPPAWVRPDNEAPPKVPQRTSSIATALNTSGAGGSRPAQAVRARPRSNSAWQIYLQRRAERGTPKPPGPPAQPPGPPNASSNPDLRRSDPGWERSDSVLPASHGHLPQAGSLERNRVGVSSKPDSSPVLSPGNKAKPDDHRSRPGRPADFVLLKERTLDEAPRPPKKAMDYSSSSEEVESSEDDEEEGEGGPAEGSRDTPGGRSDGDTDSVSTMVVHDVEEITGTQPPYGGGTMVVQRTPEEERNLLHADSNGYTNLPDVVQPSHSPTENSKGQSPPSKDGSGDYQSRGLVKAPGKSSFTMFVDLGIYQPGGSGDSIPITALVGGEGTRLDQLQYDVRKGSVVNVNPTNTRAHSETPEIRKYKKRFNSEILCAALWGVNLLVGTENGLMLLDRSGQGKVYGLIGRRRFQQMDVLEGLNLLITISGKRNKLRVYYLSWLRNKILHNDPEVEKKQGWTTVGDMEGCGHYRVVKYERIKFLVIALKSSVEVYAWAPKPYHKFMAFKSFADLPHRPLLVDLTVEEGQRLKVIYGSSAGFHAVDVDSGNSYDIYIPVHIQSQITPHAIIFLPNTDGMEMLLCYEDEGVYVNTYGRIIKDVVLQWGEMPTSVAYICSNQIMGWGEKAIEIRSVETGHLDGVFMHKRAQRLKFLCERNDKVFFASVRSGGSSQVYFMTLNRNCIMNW

C=C1C(=O)OC2C1CC/C(C)=C/CCC1(C)OC21 (stereo not given)
residual activity (CHEK2 (human); compound 1.0 µM): 102%
residual activity (CHEK2 (human); compound 5.0 µM): 121%
residual activity (MAPK1 (human); compound 1.0 µM): 90%
residual activity (MAPK1 (human); compound 5.0 µM): 83%
residual activity (MAPK3 (human); compound 1.0 µM): 105%
residual activity (MAPK3 (human); compound 5.0 µM): 103%
residual activity (PIM2 (human); compound 1.0 µM): 110%
residual activity (PIM2 (human); compound 5.0 µM): 102%
residual activity (MINK1 (human); compound 1.0 µM): 108%
residual activity (MINK1 (human); compound 5.0 µM): 122%
residual activity (SRC (human); compound 1.0 µM): 110%
residual activity (SRC (human); compound 5.0 µM): 111%
residual activity (GCK (human); compound 1.0 µM): 116%
residual activity (GCK (human); compound 5.0 µM): 98%
residual activity (MAPK10 (human); compound 1.0 µM): 115%
residual activity (MAPK10 (human); compound 5.0 µM): 134%
residual activity (AURKB (human); compound 1.0 µM): 106%
residual activity (AURKB (human); compound 5.0 µM): 99%
residual activity (MAPKAPK2 (human); compound 1.0 µM): 72%
residual activity (MAPKAPK2 (human); compound 5.0 µM): 64%
residual activity (MKNK1 (human); compound 1.0 µM): 116%
residual activity (MKNK1 (human); compound 5.0 µM): 94%
residual activity (MAP2K1 (human); compound 1.0 µM): 96%
residual activity (MAP2K1 (human); compound 5.0 µM): 93%
residual activity (PHKG1 (human); compound 1.0 µM): 116%
residual activity (PHKG1 (human); compound 5.0 µM): 108%
residual activity (MARK2 (human); compound 1.0 µM): 112%
residual activity (MARK2 (human); compound 5.0 µM): 102%
residual activity (CHEK1 (human); compound 1.0 µM): 123%
residual activity (CHEK1 (human); compound 5.0 µM): 98%
residual activity (NEK2 (human); compound 1.0 µM): 110%
residual activity ([1]; compound 1.0 µM): 101%
residual activity ([1]; compound 5.0 µM): 92%
residual activity (MAPK15 (human); compound 1.0 µM): 98%
residual activity (MAPK15 (human); compound 5.0 µM): 119%
residual activity (IGF1R (human); compound 1.0 µM): 120%
residual activity (IGF1R (human); compound 5.0 µM): 109%
residual activity (NTRK1 (human); compound 1.0 µM): 106%
residual activity (NTRK1 (human); compound 5.0 µM): 83%
residual activity (PRKACA (human); compound 1.0 µM): 121%
residual activity (PRKACA (human); compound 5.0 µM): 103%
residual activity ([2]; compound 1.0 µM): 132%
residual activity ([2]; compound 5.0 µM): 106%
residual activity (EPHB4 (human); compound 1.0 µM): 124%
residual activity (MAP3K5 (human); compound 1.0 µM): 98%
residual activity (MAP3K5 (human); compound 5.0 µM): 125%
residual activity (PKN2 (human); compound 1.0 µM): 106%
residual activity (PKN2 (human); compound 5.0 µM): 102%
residual activity (MAPK9 (human); compound 1.0 µM): 114%
residual activity (MAPK9 (human); compound 5.0 µM): 110%
residual activity (PRKCA (human); compound 1.0 µM): 108%
residual activity (PRKCA (human); compound 5.0 µM): 108%
residual activity (RPS6KA1 KD1 KD2 (human); compound 1.0 µM): 110%
residual activity (RPS6KA1 KD1 KD2 (human); compound 5.0 µM): 112%
residual activity (PRKAA1 or PRKAA2 (rat); compound 1.0 µM): 97%
residual activity (PRKAA1 or PRKAA2 (rat); compound 5.0 µM): 98%
residual activity (STK3 (human); compound 1.0 µM): 118%
residual activity (STK3 (human); compound 5.0 µM): 125%
residual activity (MKNK2 (human); compound 1.0 µM): 113%
residual activity (MKNK2 (human); compound 5.0 µM): 117%
residual activity (MAP3K1 (human); compound 1.0 µM): 112%
residual activity (MAP3K1 (human); compound 5.0 µM): 120%
residual activity (YES1 (human); compound 5.0 µM): 109%

COc1ccc(N(C(=O)Nc2c(C)cccc2C)c2cc(Nc3ccc(N4CCN(C)CC4)cc3)ncn2)c(OC)c1
residual activity (CHEK2 (human); compound 0.01 µM): 89%
residual activity (CHEK2 (human); compound 0.1 µM): 75%
residual activity (CHEK2 (human); compound 1.0 µM): 34%
residual activity (MAPK1 (human); compound 0.01 µM): 103%
residual activity (MAPK1 (human); compound 0.1 µM): 110%
residual activity (MAPK1 (human); compound 1.0 µM): 109%
residual activity (IKBKB (human); compound 0.01 µM): 83%
residual activity (IKBKB (human); compound 0.1 µM): 95%
residual activity (IKBKB (human); compound 1.0 µM): 99%
residual activity (MAPK3 (human); compound 0.01 µM): 104%
residual activity (MAPK3 (human); compound 0.1 µM): 101%
residual activity (MAPK3 (human); compound 1.0 µM): 95%
residual activity (PIM2 (human); compound 1.0 µM): 117%
residual activity (MINK1 (human); compound 0.01 µM): 94%
residual activity (MINK1 (human); compound 0.1 µM): 76%
residual activity (MINK1 (human); compound 1.0 µM): 18%
residual activity (SRC (human); compound 0.01 µM): 45%
residual activity (SRC (human); compound 0.1 µM): 9%
residual activity (SRC (human); compound 1.0 µM): 3%
residual activity (GCK (human); compound 0.01 µM): 103%
residual activity (GCK (human); compound 0.1 µM): 72%
residual activity (GCK (human); compound 1.0 µM): 21%
residual activity (MAPK10 (human); compound 0.01 µM): 93%
residual activity (MAPK10 (human); compound 0.1 µM): 77%
residual activity (MAPK10 (human); compound 1.0 µM): 38%
residual activity (AURKB (human); compound 0.01 µM): 93%
residual activity (AURKB (human); compound 0.1 µM): 92%
residual activity (AURKB (human); compound 1.0 µM): 91%
residual activity (MAPKAPK2 (human); compound 0.01 µM): 101%
residual activity (MAPKAPK2 (human); compound 0.1 µM): 100%
residual activity (MAPKAPK2 (human); compound 1.0 µM): 97%
residual activity (MKNK1 (human); compound 0.01 µM): 109%
residual activity (MKNK1 (human); compound 0.1 µM): 116%
residual activity (MKNK1 (human); compound 1.0 µM): 112%
residual activity (MAP2K1 (human); compound 0.01 µM): 107%
residual activity (MAP2K1 (human); compound 0.1 µM): 106%
residual activity (MAP2K1 (human); compound 1.0 µM): 97%
residual activity (PHKG1 (human); compound 0.01 µM): 125%
residual activity (PHKG1 (human); compound 0.1 µM): 104%
residual activity (PHKG1 (human); compound 1.0 µM): 107%
residual activity (MARK2 (human); compound 0.01 µM): 101%
residual activity (MARK2 (human); compound 0.1 µM): 90%
residual activity (MARK2 (human); compound 1.0 µM): 63%
residual activity (CHEK1 (human); compound 0.01 µM): 95%
residual activity (CHEK1 (human); compound 0.1 µM): 100%
residual activity (CHEK1 (human); compound 1.0 µM): 86%
residual activity (NEK2 (human); compound 0.01 µM): 112%
residual activity (NEK2 (human); compound 0.1 µM): 93%
residual activity (NEK2 (human); compound 1.0 µM): 95%
residual activity ([1]; compound 0.01 µM): 83%
residual activity ([1]; compound 0.1 µM): 83%
residual activity ([1]; compound 1.0 µM): 75%
residual activity (MAPK15 (human); compound 0.01 µM): 108%
residual activity (MAPK15 (human); compound 0.1 µM): 112%
residual activity (MAPK15 (human); compound 1.0 µM): 94%
residual activity (NTRK1 (human); compound 0.01 µM): 98%
residual activity (NTRK1 (human); compound 1.0 µM): 89%
residual activity (PRKACA (human); compound 0.01 µM): 91%
residual activity (PRKACA (human); compound 0.1 µM): 96%
residual activity (PRKACA (human); compound 1.0 µM): 79%
residual activity ([2]; compound 0.01 µM): 108%
residual activity ([2]; compound 0.1 µM): 106%
residual activity ([2]; compound 1.0 µM): 96%
residual activity (EPHB4 (human); compound 0.01 µM): 110%
residual activity (EPHB4 (human); compound 0.1 µM): 80%
residual activity (EPHB4 (human); compound 1.0 µM): 5%
residual activity (MAP3K5 (human); compound 0.01 µM): 110%
residual activity (MAP3K5 (human); compound 0.1 µM): 119%
residual activity (PKN2 (human); compound 0.1 µM): 99%
residual activity (PKN2 (human); compound 1.0 µM): 90%
residual activity (CAMKK2 (human); compound 0.01 µM): 105%
residual activity (CAMKK2 (human); compound 0.1 µM): 102%
residual activity (CAMKK2 (human); compound 1.0 µM): 89%
residual activity (MAPK9 (human); compound 0.01 µM): 103%
residual activity (MAPK9 (human); compound 0.1 µM): 90%
residual activity (MAPK9 (human); compound 1.0 µM): 21%
residual activity (PRKCA (human); compound 0.01 µM): 102%
residual activity (PRKCA (human); compound 0.1 µM): 102%
residual activity (PRKCA (human); compound 1.0 µM): 104%
residual activity (RPS6KA1 KD1 KD2 (human); compound 0.01 µM): 106%
residual activity (RPS6KA1 KD1 KD2 (human); compound 0.1 µM): 91%
residual activity (RPS6KA1 KD1 KD2 (human); compound 1.0 µM): 38%
residual activity (STK3 (human); compound 0.01 µM): 112%
residual activity (STK3 (human); compound 0.1 µM): 109%
residual activity (STK3 (human); compound 1.0 µM): 118%
residual activity (MKNK2 (human); compound 0.01 µM): 107%
residual activity (MKNK2 (human); compound 0.1 µM): 107%
residual activity (MKNK2 (human); compound 1.0 µM): 102%
residual activity (MAP3K1 (human); compound 0.01 µM): 94%
residual activity (YES1 (human); compound 0.01 µM): 34%
residual activity (YES1 (human); compound 0.1 µM): 11%
residual activity (YES1 (human); compound 1.0 µM): 8%
